This note sets out measurements from patent publication US12421210B2, “Fused bicyclic heterocycles as therapeutic agents” (NEW YORK UNIVERSITY, priority 2018, dated 2025).

The test deals with human NAMPT enzyme (His-hNAMPT) (Homo sapiens (Human), UniProt P43490). Kind of test: NAMPT enzymatic inhibition assay (fluorescence, NADH product). Conditions: [BPS]; read-out: NAMPT IC50 (μM) [BPS]. The format is biochemical.
Sequence of human NAMPT enzyme (His-hNAMPT) (P43490 whole entry): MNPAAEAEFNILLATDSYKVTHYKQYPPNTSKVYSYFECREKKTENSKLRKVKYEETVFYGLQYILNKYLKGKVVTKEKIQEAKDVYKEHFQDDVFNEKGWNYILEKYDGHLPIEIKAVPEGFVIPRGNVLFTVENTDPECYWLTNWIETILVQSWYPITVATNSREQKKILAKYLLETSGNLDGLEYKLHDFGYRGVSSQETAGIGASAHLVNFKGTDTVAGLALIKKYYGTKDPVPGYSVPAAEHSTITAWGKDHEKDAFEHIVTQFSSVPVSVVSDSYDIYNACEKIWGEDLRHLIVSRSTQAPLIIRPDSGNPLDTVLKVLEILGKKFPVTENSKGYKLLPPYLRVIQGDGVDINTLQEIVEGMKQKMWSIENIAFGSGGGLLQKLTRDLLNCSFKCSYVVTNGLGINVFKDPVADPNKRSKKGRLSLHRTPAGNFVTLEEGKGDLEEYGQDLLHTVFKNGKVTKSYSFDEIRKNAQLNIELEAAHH
One may read the IC50 as the midpoint of a concentration-inhibition curve. Turning to `CC1(OC(=O)N2C[C@@H]3[C@@H](CCNC(=O)c4cnc5[nH]ncc5c4)[C@@H]3C2)COC1` [Example 55, (1R,5S,6s)-3-methyloxetan-3-yl 6-(2-(1H-pyrazolo[3,4-b]pyridine-5-carboxamido)ethyl)-3-azabicyclo[3.1.0]hexane-3-carboxylate], the IC50 was more than 30 µM.
For `CC(C)(C)NC(=O)N1C[C@@H]2[C@@H](CCNC(=O)c3cc4ccncc4o3)[C@@H]2C1` [Example 56, N-(2-((1R,5S,6s)-3-(tert-butylcarbamoyl)-3-azabicyclo[3.1.0]hexan-6-yl)ethyl)furo[2,3-c]pyridine-2-carboxamide], the IC50 was in the range of 0.01 to 0.49 µM.
As to `O=C(NCC[C@@H]1[C@H]2CN(C(=O)Nc3ccccc3)C[C@@H]12)c1cc2ccncc2o1` [Example 57, N-(2-((1R,5S,6s)-3-(phenylcarbamoyl)-3-azabicyclo[3.1.0]hexan-6-yl)ethyl)furo[2,3-c]pyridine-2-carboxamide], the 50% inhibitory concentration (IC50) fell in the range of 0.01 to 0.49 µM.
`O=C(NCC[C@@H]1[C@H]2CN(C(=O)N3CCOCC3)C[C@@H]12)c1cc2ccncc2o1` [Example 58, N-(2-((1R,5S,6s)-3-(morpholine-4-carbonyl)-3-azabicyclo[3.1.0]hexan-6-yl)ethyl)furo[2,3-c]pyridine-2-carboxamide]: the IC50 was in the range of 0.01 to 0.49 µM.
Take `O=C(NCC[C@@H]1[C@H]2CN(C(=O)NC3CCOCC3)C[C@@H]12)c1cc2ccncc2o1` [Example 59, N-(2-((1R,5S,6s)-3-((tetrahydro-2H-pyran-4-yl)carbamoyl)-3-azabicyclo[3.1.0]hexan-6-yl)ethyl)furo[2,3-c]pyridine-2-carboxamide]: the 50% inhibitory concentration (IC50) lay within 0.5 to 0.99 µM.
For the compound `CCN(CC)C(=O)N1C[C@@H]2[C@@H](CCNC(=O)c3cc4ccncc4o3)[C@@H]2C1` [Example 60, N-(2-((1R,5S,6s)-3-(diethylcarbamoyl)-3-azabicyclo[3.1.0]hexan-6-yl)ethyl)furo[2,3-c]pyridine-2-carboxamide], the IC50 fell in the range of 0.01 to 0.49 µM.
Regarding `O=C(NCC[C@@H]1[C@H]2CN(C(=O)OC3CCOCC3)C[C@@H]12)c1cc2ccncc2o1` [Example 61, (1R,5S,6s)-3-tetrahydro-2H-pyran-4-yl 6-(2-(furo[2,3-c]pyridine-2-carboxamido)ethyl)-3-azabicyclo[3.1.0]hexane-3-carboxylate], the IC50 lay in the range of 0.01 to 0.49 µM.
For the compound `CC1(OC(=O)N2C[C@@H]3[C@@H](CCNC(=O)c4nc5ccncc5s4)[C@@H]3C2)COC1` [Example 62, (1R,5S,6s)-3-methyloxetan-3-yl 6-(2-(thiazolo[5,4-c]pyridine-2-carboxamido)ethyl)-3-azabicyclo[3.1.0]hexane-3-carboxylate], the 50% inhibitory concentration (IC50) was in the range of 1 to 29 µM.
Take `O=C(NCC[C@@H]1[C@H]2CN(C(=O)c3ccccc3)C[C@@H]12)c1ccc2nccn2c1` [Example 63, N-(2-((1R,5S,6s)-3-benzoyl-3-azabicyclo[3.1.0]hexan-6-yl)ethyl)imidazo[1,2-a]pyridine-6-carboxamide]: the IC50 is 0.01 to 0.49 µM.
Take `CC(C)(C)NC(=O)N1C[C@@H]2[C@@H](CCNC(=O)c3ccc4nccn4c3)[C@@H]2C1` [Example 64, N-(2-((1R,5S,6s)-3-(tert-butylcarbamoyl)-3-azabicyclo[3.1.0]hexan-6-yl)ethyl)imidazo[1,2-a]pyridine-6-carboxamide]: the concentration for half-maximal inhibition (IC50) fell in the range of 0.01 to 0.49 µM.
As for `O=C(NCC[C@@H]1[C@H]2CN(C(=O)Nc3ccccc3)C[C@@H]12)c1ccc2nccn2c1` [Example 65, N-(2-((1R,5S,6s)-3-(phenylcarbamoyl)-3-azabicyclo[3.1.0]hexan-6-yl)ethyl)imidazo[1,2-a]pyridine-6-carboxamide], the half-inhibitory concentration (IC50) is 1 to 29 µM.
On to `O=C(NCC[C@@H]1[C@H]2CN(C(=O)N3CCCC3)C[C@@H]12)c1ccc2nccn2c1` [Example 66, N-(2-((1R,5S,6s)-3-(pyrrolidine-1-carbonyl)-3-azabicyclo[3.1.0]hexan-6-yl)ethyl)imidazo[1,2-a]pyridine-6-carboxamide], for which the IC50 lay in the range of 1 to 29 µM.
`O=C(NCC[C@@H]1[C@H]2CN(C(=O)OC3CCOCC3)C[C@@H]12)c1ccc2nccn2c1` [Example 67, (1R,5S,6s)-tetrahydro-2H-pyran-4-yl 6-(2-(imidazo[1,2-a]pyridine-6-carboxamido)ethyl)-3-azabicyclo[3.1.0]hexane-3-carboxylate]: the concentration for half-maximal inhibition (IC50) was 0.01 to 0.49 µM.
Take `O=C(NCC[C@@H]1[C@H]2CN(S(=O)(=O)C3CCOCC3)C[C@@H]12)c1ccc2nccn2c1` [Example 68, N-(2-((1R,5S,6s)-3-((tetrahydro-2H-pyran-4-yl)sulfonyl)-3-azabicyclo[3.1.0]hexan-6-yl)ethyl)imidazo[1,2-a]pyridine-6-carboxamide]: the half-inhibitory concentration (IC50) lay in the range of 1 to 29 µM.
Then `CC(C)(C)CNC(=O)N1C[C@@H]2[C@@H](CCNC(=O)c3cc4ccncc4o3)[C@@H]2C1` [Example 69, N-(2-((1R,5S,6s)-3-(neopentylcarbamoyl)-3-azabicyclo[3.1.0]hexan-6-yl)ethyl)furo[2,3-c]pyridine-2-carboxamide], with 0.5 to 0.99 µM.
In the case of `O=C(NCC[C@@H]1[C@H]2CN(C(=O)N3CCCC3)C[C@@H]12)c1cc2ccncc2o1` [Example 70, N-(2-((1R,5S,6s)-3-(pyrrolidine-1-carbonyl)-3-azabicyclo[3.1.0]hexan-6-yl)ethyl)furo[2,3-c]pyridine-2-carboxamide], the IC50 was 0.01 to 0.49 µM.
For the compound `O=C(NCC[C@@H]1[C@H]2CN(C(=O)OC3CCCC3)C[C@@H]12)c1cc2ccncc2o1` [Example 71, (1R,5S,6s)-(cyclopentyl) 6-(2-(furo[2,3-c]pyridine-2-carboxamido)ethyl)-3-azabicyclo[3.1.0]hexane-3-carboxylate], the half-inhibitory concentration (IC50) lay in the range of 0.01 to 0.49 µM.
Consider `O=C(NCC[C@@H]1[C@H]2CN(S(=O)(=O)c3ccc(F)cc3)C[C@@H]12)c1cc2ccncc2o1` [Example 72, N-(2-((1R,5S,6s)-3-((4-fluorophenyl)sulfonyl)-3-azabicyclo[3.1.0]hexan-6-yl)ethyl)furo[2,3-c]pyridine-2-carboxamide], for which the IC50 was in the range of 0.01 to 0.49 µM.
Regarding `O=C(NCC[C@@H]1[C@H]2CN(S(=O)(=O)C3CCOCC3)C[C@@H]12)c1cc2ccncc2o1` [Example 73, N-(2-((1R,5S,6s)-3-((tetrahydro-2H-pyran-4-yl)sulfonyl)-3-azabicyclo[3.1.0]hexan-6-yl)ethyl)furo[2,3-c]pyridine-2-carboxamide], the half-inhibitory concentration (IC50) fell in the range of 1 to 29 µM.
Regarding `CC1(OC(=O)N2C[C@@H]3[C@@H](CCNC(=O)c4cc5cc(N)ncc5s4)[C@@H]3C2)COC1` [Example 74, (1R,5S,6s)-3-methyloxetan-3-yl 6-(2-(5-aminothieno[2,3-c]pyridine-2-carboxamido)ethyl)-3-azabicyclo[3.1.0]hexane-3-carboxylate], the IC50 fell in the range of 0.01 to 0.49 µM.
On to `CC(C)(C)NC(=O)N1C[C@@H]2[C@@H](CCNC(=O)/C=C/c3cccnc3)[C@@H]2C1` [Example 75, (1R,5S,6s)-N-(tert-butyl)-6-(2-((E)-3-(pyridin-3-yl)acrylamido)ethyl)-3-azabicyclo[3.1.0]hexane-3-carboxamide], for which the concentration for half-maximal inhibition (IC50) lay within 0.01 to 0.49 µM.
Consider `O=C(NCC[C@@H]1[C@H]2CN(C(=O)c3ccccc3)C[C@@H]12)c1cnc2nccn2c1` [Example 76, N-(2-((1R,5S,6s)-3-benzoyl-3-azabicyclo[3.1.0]hexan-6-yl)ethyl)imidazo[1,2-a]pyrimidine-6-carboxamide], for which the half-maximal inhibitory concentration (IC50) was in the range of 0.01 to 0.49 µM.
Take `CC(C)(C)NC(=O)N1C[C@@H]2[C@@H](CCNC(=O)c3cnc4nccn4c3)[C@@H]2C1` [Example 77, N-(2-((1R,5S,6s)-3-(tert-butylcarbamoyl)-3-azabicyclo[3.1.0]hexan-6-yl)ethyl)imidazo[1,2-a]pyrimidine-6-carboxamide]: the half-maximal inhibitory concentration (IC50) was 0.01 to 0.49 µM.
`O=C(NCC[C@@H]1[C@H]2CN(C(=O)Nc3ccccc3)C[C@@H]12)c1cnc2nccn2c1` [Example 78, N-(2-((1R,5S,6s)-3-(phenylcarbamoyl)-3-azabicyclo[3.1.0]hexan-6-yl)ethyl)imidazo[1,2-a]pyrimidine-6-carboxamide]: the IC50 fell in the range of 0.5 to 0.99 µM.
Turning to `O=C(NCC[C@@H]1[C@H]2CN(C(=O)OC3CCOCC3)C[C@@H]12)c1cnc2nccn2c1` [Example 79, (1R,5S,6s)-tetrahydro-2H-pyran-4-yl 6-(2-(imidazo[1,2-a]pyrimidine-6-carboxamido)ethyl)-3-azabicyclo[3.1.0]hexane-3-carboxylate], the IC50 fell in the range of 0.01 to 0.49 µM.
Under `O=C(NCC[C@@H]1[C@H]2CN(S(=O)(=O)C3CCOCC3)C[C@@H]12)c1cnc2nccn2c1` [Example 80, N-(2-((1R,5S,6s)-3-((tetrahydro-2H-pyran-4-yl)sulfonyl)-3-azabicyclo[3.1.0]hexan-6-yl)ethyl)imidazo[1,2-a]pyrimidine-6-carboxamide] stands 1 to 29 µM; under `CC(C)(C)NC(=O)N1C[C@@H]2[C@@H](CCNC(=O)c3cc(-c4cccnc4)on3)[C@@H]2C1` [Example 81, N-(2-((1R,5S,6s)-3-(tert-butylcarbamoyl)-3-azabicyclo[3.1.0]hexan-6-yl)ethyl)-5-(pyridin-3-yl)isoxazole-3-carboxamide], less than 0.01 µM.
Then `CC(C)(C)NC(=O)N1C[C@@H]2[C@@H](CCNC(=O)c3cc4cnccc4[nH]3)[C@@H]2C1` [Example 82, N(2-((1R,5S,6s)-3-(tert-butylcarbamoyl)-3-azabicyclo[3.1.0]hexan-6-yl)ethyl)-1H-pyrrolo[3,2-c]pyridine-2-carboxamide], with 0.01 to 0.49 µM; and `O=C(NCC[C@@H]1[C@H]2CN(C(=O)OC3CCOCC3)C[C@@H]12)c1cc2cnccc2[nH]1` [Example 83, (1R,5S,6s)-tetrahydro-2H-pyran-4-yl 6-(2-(1H-pyrrolo[3,2-c]pyridine-2-carboxamido)ethyl)-3-azabicyclo[3.1.0]hexane-3-carboxylate], with 0.01 to 0.49 µM.
On to `O=C(NCC[C@@H]1[C@H]2CN(S(=O)(=O)C3CCOCC3)C[C@@H]12)c1cc2cnccc2[nH]1` [Example 84, N-(2-((1R,5S,6s)-3-((tetrahydro-2H-pyran-4-yl)sulfonyl)-3-azabicyclo[3.1.0]hexan-6-yl)ethyl)-1H-pyrrolo[3,2-c]pyridine-2-carboxamide], for which the 50% inhibitory concentration (IC50) was in the range of 0.5 to 0.99 µM.
